Assays:
[1] = system: MDA-MB-231 xenografts in Tg(fli1:EGFP) zebrafish embryos; test: Zebrafish MDA-MB-231 xenograft model; format: in vivo; conditions: for reduction of tumor mass vs untreated control: 3 days post injection
Procedure: The human breast carcinoma MDA-MB 231 cell line was cultured in DMEM:Ham’s 12 (1:1) medium (Sigma-Aldrich, St. Louis, MO, USA) supplemented with 10% FBS (Sigma-Aldrich, St. Louis, MO, USA), 100 µg/mL streptomycin, and 100 U/mL penicillin (Sigma-Aldrich, St. Louis, MO, USA), and grown as a monolayer in humidified atmosphere of 95% air and 5% CO2 at 37 °C. Prior to microinjection, the cells were washed once with PBS and trypsinized (0.25% trypsin/0.53 mM EDTA) (Sigma-Aldrich, St. Louis, MO, USA) to obtain a single-cell suspension. After centrifugation at 1200 rpm for 5 min, the cells were resuspended in serum-free DMEM medium and labeled with 2 µM Cell Tracker TM Red CMTPX (Thermo Fisher Scientific) according to the manufacturer’s instructions.
The zebrafish xenografts with human MDA-MB-231 cells were established according to the previously described procedure with slight modification. A day before the microinjections, Tg(fli1:EGFP) embryos kept at 28 °C were manually dechorionated. At the 48 hpf stage, 5 nL of MDA-MB 231 cell suspension containing 150 labeled cells was microinjected into the yolk of anesthetized embryos by a pneumatic picopump (PV820, World Precision Instruments, Sarasota, FL, USA). The exact number of cells was confirmed by dispensing the injected volume onto a microscope slide and by visual counting. After injection, embryos were incubated, to recover, for at least for 60 min at 28 °C, dead embryos were removed, while alive embryos were transferred into 24-well plates containing 1 mL of E3 water and 10 embryos per well. The injected xenografts were treated with the three doses of 8b (3.13, 6.25, and 12.5 µM), and maintained at 31–32 °C by 120 hpf. DMSO (0.25%) was used as a negative control. The survival and development of the xenografted embryos was recorded every day until the end of experiment (3 days post injection = 3 dpi), at which point, anesthetized xenografts were processed by fluorescent microscopy. The tumor size, number of xenografts with disseminated tumor cells in the caudal region, and number of disseminated cells per embryo were determined. The tumor size was determined by the fluorescent images using ImageJ. The experiment was repeated two times using 10 embryos per concentration.

[2] = system: intersegmental blood vessels (ISVs) of Tg(fli1:EGFP) zebrafish embryos; test: Anti-angiogenic activity in Tg(fli1:EGFP) zebrafish embryos; format: in vivo
Procedure: The inhibitory activity of 8b on angiogenesis was examined using embryos of the transgenic zebrafish Tg(fli1:EGFP) line with GFP-labeled endothelial cells, as previously described. Briefly, embryos at the 6–8 hpf stage were exposed to three non-toxic concentrations and incubated at 28 °C by 48 hpf. At 48 hpf, the treated embryos were anesthetized with 0.02% tricaine, imaged under a fluorescence microscope (Olympus BX51, Applied Imaging Corp., San Jose, CA, USA), and analyzed for the development of intersegmental blood vessels (ISVs). The experiment was performed three times using ten embryos per concentration. ISV lengths were measured using ImageJ program, and expressed as mean value with standard deviation. Inhibitory effect of the applied treatment was determined in relation to the control (DMSO-treated) group, arbitrarily set to 100%.

[3] = system: MDA-MB-231 cells; test: Bicameral (transwell) migration assay; format: cell-based, human; conditions: 24 h; 5 μM 8b, 10 μM 9b
Procedure: To determine MDA-MB-231 cell migration and invasion cell capacities, Corning® Costar® Transwell® cell culture inserts with 8.0 μm pore polycarbonate filters (Sigma Aldrich, CLS3464) and Corning™ BioCoat™ Matrigel™ Invasion Chamber with Corning Matrigel Matrix™ cell culture inserts (Thermo fisher scientific, Waltham, MA, USA) respectively were used. Briefly, 6 × 10^4 cells in 200 μL were seeded in the upper chamber and the bottom chamber was filled with 800 μL of medium. After 24 h under indicated treatments, the remaining cells in the upper chamber were gently removed with a cotton swab, moistened with medium, and the inserts were carefully washed twice with 37 °C warmed PBS. Then, attached cells at the bottom side of the membrane were fixed by immersing in ice cold methanol for 2 min and stained with 0.1% crystal violet for 15 min at room temperature. Stained cells were photographed and quantified using NIH ImageJ software.

With `O=C(CCCCCCCN1CCN(C(c2ccccc2)c2ccccc2)CC1)NO` [Compound 8b, 8-(4-(diphenylmethyl)-piperazin-1-yl)-N-hydroxyoctanamide] the “number of metastasis per embryo, fold lower than untreated” value ([1]; 3.13 µM, 3-day treatment) was “up to 9.6 fold”, the “reduction of number of embryos exhibiting metastases” value ([1]; 3.13 µM, 3-day treatment) was 50% and the “reduction of tumor mass vs untreated control” value ([1]; 3.13 µM) was 56.1 ± 5.2%. For the same molecule, the “dissemination of MDA-MB-231 cells” value ([1]; 12.5 µM) was “completely inhibited”, the “reduction of tumor mass vs untreated control” value ([1]; 12.5 µM) was “almost complete reduction” and the “ED50 (effective drug concentration reducing tumor mass by 50% in relation to the control)” value ([1]; 3-day treatment) was 2670 nM. The “toxic side effects in xenografts” value ([1]; 3.13, 6.25 and 12.5 µM, 3-day treatment) was “no toxic side effects were observed”, the “embryos affected in terms of ISV growth (anti-angiogenic phenotype)” value ([2]; 6.25 µM, 48 hpf) was ~ 60% and the “toxic response in embryos at anti-angiogenic effective doses” value ([2]; 8b 6.25-50 µM, Suten effective dose 1.56 µM) was “did not elicit any toxic response”. For the same molecule, the ISV inhibition ([2]; 25 and 50 µM, 48 hpf) was “majority of ISVs were inhibited”.
For `O=C(NO)c1ccc(CN2CCN(C(c3ccccc3)c3ccccc3)CC2)cc1` [Compound 9b, 4-(4-(diphenylmethyl)-piperazin-1-ylmethyl)-N-hydroxy-benzamide], the “anti-migratory property (% compared to control)” value [3] was “did not reduce”.

From PMC9785542, “Discovery of 1-Benzhydryl-Piperazine-Based HDAC Inhibitors with Anti-Breast Cancer Activity: Synthesis, Molecular Modeling, In Vitro and In Vivo Biological Evaluation” (Pharmaceutics, 2022)
